pIC50: −log10 of the molar value. Read-outs that look alike come from different tables or passages of the source.
Tests used:
[1] = biological target: HDAC1 enzyme (recombinant GST-HDAC1) (Homo sapiens (Human), UniProt Q13547); test: In vitro HDAC assay (BIOMOL fluorescent-based HDAC activity assay), HDAC1; type: biochemical
Method: (§1) The assay has been carried out in 96 well format and the BIOMOL fluorescent-based HDAC activity assay has been applied. […] Flur de lys Developer was added and the reaction was incubated for 10 min. Briefly, deacetylation of the substrate sensitizes it to the developer, which then generates a fluorophore (symbol). The fluorophore is excited with 360 nm light and the emitted light (460 nm) is detected on a fluorometric plate reader (Tecan Ultra Microplate detection system, Tecan Group Ltd.).
(§2) The analytical software, Prism 3.0 has been used to generate IC50 from a series of data.

[2] = biological target: HDAC8 enzyme (recombinant GST-HDAC8) (Homo sapiens (Human), UniProt Q9BY41); test: In vitro HDAC assay (BIOMOL fluorescent-based HDAC activity assay), HDAC8; type: biochemical
Sequence of HDAC8 enzyme (recombinant GST-HDAC8) (Q9BY41 whole entry): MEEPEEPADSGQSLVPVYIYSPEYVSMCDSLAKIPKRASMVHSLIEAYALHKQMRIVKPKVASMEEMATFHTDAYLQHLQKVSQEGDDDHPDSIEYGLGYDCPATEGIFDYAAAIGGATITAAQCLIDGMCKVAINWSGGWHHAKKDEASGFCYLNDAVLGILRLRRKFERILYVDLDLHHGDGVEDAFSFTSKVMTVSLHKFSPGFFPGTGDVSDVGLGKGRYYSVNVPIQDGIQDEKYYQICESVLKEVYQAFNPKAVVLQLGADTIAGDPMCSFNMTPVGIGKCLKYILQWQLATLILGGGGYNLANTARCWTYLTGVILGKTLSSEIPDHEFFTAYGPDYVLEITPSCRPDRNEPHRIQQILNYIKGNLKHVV
Method: as §1, §2

[3] = read-out: HDAC1 Enzyme Activity IC50
[4] = read-out: HDAC8 Enzyme Activity IC50

Sequence of HDAC1 enzyme (recombinant GST-HDAC1) (Q13547 whole entry): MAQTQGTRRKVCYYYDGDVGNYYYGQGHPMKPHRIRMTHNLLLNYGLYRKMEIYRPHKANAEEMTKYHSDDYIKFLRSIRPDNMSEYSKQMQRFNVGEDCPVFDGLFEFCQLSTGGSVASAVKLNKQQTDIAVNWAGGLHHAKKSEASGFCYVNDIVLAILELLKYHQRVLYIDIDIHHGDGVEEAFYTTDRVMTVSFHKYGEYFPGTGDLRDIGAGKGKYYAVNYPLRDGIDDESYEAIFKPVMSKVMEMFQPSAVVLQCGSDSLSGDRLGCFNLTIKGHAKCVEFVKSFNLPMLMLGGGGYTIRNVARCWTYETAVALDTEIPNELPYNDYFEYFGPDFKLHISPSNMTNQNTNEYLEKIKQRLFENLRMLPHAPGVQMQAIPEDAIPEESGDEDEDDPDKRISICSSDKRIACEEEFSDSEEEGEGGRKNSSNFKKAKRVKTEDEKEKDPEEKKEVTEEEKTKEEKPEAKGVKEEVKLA

SMILES | pIC50 [1, 3] | pIC50 [2, 4] | pIC50 ([1]; Free base, read-out: IC50 (HDAC1)) | pIC50 ([2]; Free base, read-out: IC50 (HDAC8))
O=C(/C=C/c1ccc2c(c1)nc(-c1ccsc1)n2CCCO)NO [Compound 20, N-Hydroxy-3-[1-(3-hydroxy-propyl)-2-thiophen-3-yl-1H-benzimidazol-5-yl]-acrylamide] | 5.72 | 6.27 | – | –
CC(C)Cc1nc2cc(/C=C/C(=O)NO)ccc2n1CCCO [Compound 21, N-Hydroxy-3-[1-(3-hydroxy-propyl)-2-isobutyl-1H-benzimidazol-5-yl]-acrylamide] | 7.19 | 6.62 | – | –
CCCCCCCCc1nc2cc(/C=C/C(=O)NO)ccc2n1CCCO [Compound 23, N-Hydroxy-3-[1-(3-hydroxy-propyl)-2-octyl-1H-benzimidazol-5-yl]-acrylamide] | 6.28 | 6.40 | – | –
CC(C)Cc1nc2cc(/C=C/C(=O)NO)ccc2n1CCc1ccccc1 [Compound 25, N-Hydroxy-3-(2-isobutyl-1-phenethyl-1H-benzimidazol-5-yl]-acrylamide] | 5.88 | 6.22 | – | –
O=C(/C=C/c1ccc2c(c1)nc(CCc1ccccc1)n2CCc1cccnc1)NO [Compound 27, N-Hydroxy-3-(2-phenethyl-1-(2-pyridin-3-yl-ethyl)-1H-benzimidazol-5-yl]-acrylamide] | 7.04 | 6.48 | – | –
O=C(/C=C/c1ccc2c(c1)nc(CCc1ccccc1)n2CCCN1CCCC1=O)NO [Compound 30, N-Hydroxy-3-{1-[3-(2-oxo-pyrrolidin-1-yl)-propyl]-2-phenethyl-1H-benzimidazol-5-yl}-acrylamide] | 6.71 | 6.14 | – | –
O=C(/C=C/c1ccc2c(c1)nc(CCc1ccccc1)n2CCCN1CCOCC1)NO [Compound 31, N-Hydroxy-3-[1-(3-morpholin-4-propyl]-2-phenethyl-1H-benzimidazol-5-yl}-acrylamide] | 6.61 | 5.96 | – | –
O=C(/C=C/c1ccc2c(c1)nc(CCc1ccccc1)n2Cc1ccccc1)NO [Compound 33, N-Hydroxy-3-(1-Benzyl-2-phenethyl-1H-benzimidazol-5-yl}-acrylamide] | 6.35 | 5.84 | – | –

Second part, the compound after the results:

pIC50 [1, 3] | pIC50 [2, 4] | pIC50 ([1]; Free base, read-out: IC50 (HDAC1)) | pIC50 ([2]; Free base, read-out: IC50 (HDAC8)) | SMILES
5.84 | 6.07 | – | – | CC(C)Cc1nc2cc(/C=C/C(=O)NO)ccc2n1Cc1ccccc1 [Compound 34, N-Hydroxy-3-(1-Benzyl-2-isobutyl-1H-benzimidazol-5-yl}-acrylamide]
6.43 | 6.39 | – | – | O=C(/C=C/c1ccc2c(c1)ncn2Cc1ccccc1)NO [Compound 35, N-Hydroxy-3-(1-Benzyl-1H-benzimidazol-5-yl}-acrylamide]
6.32 | 6.63 | – | – | O=C(/C=C/c1ccc2c(c1)ncn2CCc1ccccn1)NO [Compound 42, N-Hydroxy-3-[1-(2-pyridin-2-yl-ethyl)-1H-benzimidazol-5-yl]-acrylamide]
6.02 | 6.72 | – | – | CCn1c(C)nc2cc(/C=C/C(=O)NO)ccc21 [Compound 43, N-Hydroxy-3-(1-Ethyl-2-methyl-1H-benzimidazol-5-yl]-acrylamide]
7.14 | 6.59 | – | – | CCN(CC)CCn1c(CCc2ccccc2)nc2cc(/C=C/C(=O)NO)ccc21 [Compound 66, N-Hydroxy-3-[1-(2-diethylamino-ethyl)-2-phenethyl-1H-benzimidazol-5-yl]-acrylamide]
– | – | 7.43 | 6.60 | O=C(/C=C/c1ccc2c(c1)nc(CCc1ccccc1)n2CCN1CCCCC1)NO [Compound 67, N-Hydroxy-3-[2-phenethyl-1-(piperidin-1-yl-ethyl)-1H-benzimidazol-5-yl]-acrylamide]

Reference: patent US8551988B2, “Benzimidazole derivatives: preparation and pharmaceutical applications” (Mei Pharma, Inc., priority 2003, dated 2013)
